Experimental findings from publication PMC4675670 (Science translational medicine, 2015) are described below.

The target in test [1] is cytoplasmic prolyl-tRNA synthetase (PfcPRS, PF3D7_1213800) (Plasmodium falciparum, UniProt Q8I5R7, L482H). Kind of test: biochemical assay on purified recombinant mutant enzyme.
The target of test [2] is cytoplasmic prolyl-tRNA synthetase (PfcPRS, PF3D7_1213800) (Plasmodium falciparum, UniProt Q8I5R7). Kind of test: biochemical assay on purified recombinant enzyme.
The target of test [3] is human EPRS (bifunctional glutamyl-prolyl-tRNA synthetase) (Homo sapiens, UniProt P07814). As to the kind of experiment: biochemical assay.
human EPRS (bifunctional glutamyl-prolyl-tRNA synthetase), sequence (P07814 whole entry): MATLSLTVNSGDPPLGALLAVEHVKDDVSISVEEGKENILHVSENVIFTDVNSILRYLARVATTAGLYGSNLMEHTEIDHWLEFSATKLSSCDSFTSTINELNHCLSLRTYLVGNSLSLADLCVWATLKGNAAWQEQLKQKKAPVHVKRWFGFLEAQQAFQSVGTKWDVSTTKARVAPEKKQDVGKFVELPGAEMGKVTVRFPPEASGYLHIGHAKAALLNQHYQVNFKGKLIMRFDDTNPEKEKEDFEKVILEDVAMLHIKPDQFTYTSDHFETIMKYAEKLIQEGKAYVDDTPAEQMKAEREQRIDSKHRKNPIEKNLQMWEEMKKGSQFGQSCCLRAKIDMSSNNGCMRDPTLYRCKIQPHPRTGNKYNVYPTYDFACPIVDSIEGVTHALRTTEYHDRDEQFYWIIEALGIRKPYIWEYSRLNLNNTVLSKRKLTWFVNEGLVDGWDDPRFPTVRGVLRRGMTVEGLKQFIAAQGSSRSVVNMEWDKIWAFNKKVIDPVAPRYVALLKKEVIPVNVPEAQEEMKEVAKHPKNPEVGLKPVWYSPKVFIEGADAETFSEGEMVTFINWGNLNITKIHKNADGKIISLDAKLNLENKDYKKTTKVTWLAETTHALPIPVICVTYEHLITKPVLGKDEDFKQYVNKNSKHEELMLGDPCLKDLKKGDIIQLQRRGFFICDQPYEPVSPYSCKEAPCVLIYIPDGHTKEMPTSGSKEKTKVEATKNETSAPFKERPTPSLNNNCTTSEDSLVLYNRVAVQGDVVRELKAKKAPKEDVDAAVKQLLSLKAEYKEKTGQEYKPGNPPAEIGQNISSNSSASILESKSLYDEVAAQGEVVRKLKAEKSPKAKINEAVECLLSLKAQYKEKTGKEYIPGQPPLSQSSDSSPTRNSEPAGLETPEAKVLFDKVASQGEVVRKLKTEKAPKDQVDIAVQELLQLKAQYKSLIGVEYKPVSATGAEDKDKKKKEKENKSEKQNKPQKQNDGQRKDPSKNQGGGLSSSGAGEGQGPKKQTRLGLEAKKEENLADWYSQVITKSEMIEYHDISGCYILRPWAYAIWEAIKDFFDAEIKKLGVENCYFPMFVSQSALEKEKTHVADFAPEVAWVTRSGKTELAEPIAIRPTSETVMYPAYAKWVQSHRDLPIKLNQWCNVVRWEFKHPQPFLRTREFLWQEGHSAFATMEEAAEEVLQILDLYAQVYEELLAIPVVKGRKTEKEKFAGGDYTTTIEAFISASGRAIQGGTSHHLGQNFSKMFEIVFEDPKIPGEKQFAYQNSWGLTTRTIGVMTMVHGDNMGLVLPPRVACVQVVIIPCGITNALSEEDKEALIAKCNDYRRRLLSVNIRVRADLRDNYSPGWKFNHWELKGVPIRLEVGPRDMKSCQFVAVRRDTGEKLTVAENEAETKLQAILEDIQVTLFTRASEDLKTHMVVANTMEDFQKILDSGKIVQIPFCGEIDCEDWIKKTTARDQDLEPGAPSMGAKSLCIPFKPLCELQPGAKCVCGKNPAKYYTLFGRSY

`O=c1c2cc(Cl)c(Br)cc2ncn1C[C@@H](O)C[C@H]1NCCC[C@@H]1O` [halofuginol]: the Ki in test [1] is 1120 nM; in test [2] it was 71.1 nM; in test [3], 65.7 nM.
